# Test results: ChEMBL document CHEMBL1909528, “Synthesis and 2D QSAR of O-sulphonated β-aminols derivatives as novel antifungal and antibacterial agents” (Bioorg Med Chem Lett, 2011)
# pIC50: −log10 of the molar value.
# Assays:
# [1] = tested on: Trichophyton mentagrophytes; assay: Antifungal activity against Trichophyton mentagrophytes by broth microdilution method; assay type: functional, organism-based; details: for pIC50: read-out: IC50; for IC50: read-out: pIC50 (converted)
# Candida parapsilosis = assay: Antifungal activity against Candida parapsilosis ATCC 22019 by broth microdilution method; assay type: functional; details: Lodderomyces parapsilosis
# Candida albicans = assay: Antifungal activity against Candida albicans by broth microdilution method; assay type: functional, organism-based; details: for pIC50: read-out: IC50; for IC50: read-out: pIC50 (converted)
# Sporothrix schenckii = assay: Antifungal activity against Sporothrix schenckii by broth microdilution method; assay type: functional, organism-based; details: for pIC50: read-out: IC50; for IC50: read-out: pIC50 (converted)
# Escherichia coli = assay: Antibacterial activity against Escherichia coli ATCC 9637 by broth microdilution method; assay type: functional, organism-based; details: for pIC50: read-out: IC50; for IC50: read-out: pIC50 (converted)
# Aspergillus fumigatus = assay: Antifungal activity against Aspergillus fumigatus by broth microdilution method; assay type: functional
# Cryptococcus neoformans = assay: Antifungal activity against Cryptococcus neoformans by broth microdilution method; assay type: functional
# Staphylococcus aureus = assay: Antibacterial activity against Staphylococcus aureus ATCC 25923 by broth microdilution method; assay type: functional, organism-based; details: for pIC50: read-out: IC50; for IC50: read-out: pIC50 (converted)
Structure (SMILES),MIC [1] [µM],pIC50 [1],IC50 [1] [µM],MIC (Candida parapsilosis) [µM],MIC (Candida albicans) [µM],pIC50 (Candida albicans),IC50 (Candida albicans) [µM],MIC (Sporothrix schenckii) [µM],pIC50 (Sporothrix schenckii),IC50 (Sporothrix schenckii) [µM],MIC (Escherichia coli) [µM],pIC50 (Escherichia coli),IC50 (Escherichia coli) [µM],MIC (Aspergillus fumigatus) [µM],MIC (Cryptococcus neoformans) [µM],MIC (Staphylococcus aureus) [µM],pIC50 (Staphylococcus aureus),IC50 (Staphylococcus aureus) [µM]
CC(C)(C)OC(=O)N(Cc1ccccc1)CC(OS(=O)(=O)c1ccc(F)cc1)c1ccccc1 (stereo not drawn),< 50,6.34,,> 50,< 50,5.82,1.52,< 50,5.06,8.66,< 50,6.08,1.2,> 50,> 50,,,
COc1ccc(C(CN(Cc2ccccc2)C(=O)OC(C)(C)C)OS(=O)(=O)c2cccc(Cl)c2Cl)cc1 (stereo not drawn),< 50,4.83,14.9,> 50,,,,< 50,4.87,13.4,,,,> 50,> 50,,,
CC(C)(C)OC(=O)N(Cc1ccc(Cl)c(Cl)c1)CC(OS(=O)(=O)c1cccc(Cl)c1Cl)c1ccccc1 (stereo not drawn),,,,> 50,,,,< 50,4.63,23.3,,,,> 50,> 50,,,
CC(C)(C)OC(=O)N(Cc1ccccc1)CC(OS(=O)(=O)c1ccc2ccccc2c1)c1ccccc1 (stereo not drawn),< 50,5.67,2.12,> 50,,,,,,,< 50,5.45,3.54,> 50,> 50,,,
CC(C)(C)OC(=O)N(Cc1ccccc1)CC(OS(=O)(=O)c1ccc([N+](=O)[O-])cc1)c1ccccc1 (stereo not drawn),< 50,5.24,5.73,> 50,,,,,,,< 50,5.04,9.02,> 50,> 50,,,
CC(C)(C)OC(=O)N(Cc1ccccc1)CC(OS(=O)(=O)c1cccc2ccccc12)c1ccccc1 (stereo not drawn),< 50,5.26,5.48,> 50,,,,,,,< 50,5.90,1.26,> 50,> 50,,,
CC(C)(C)OC(=O)N(Cc1ccccc1)CC(OS(=O)(=O)c1cccc([N+](=O)[O-])c1)c1ccccc1 (stereo not drawn),,,,> 50,,,,< 50,5.23,5.95,,,,> 50,> 50,,,
O=[N+]([O-])c1cccc(S(=O)(=O)OC(CNCc2ccccc2)c2ccccc2)c1 (stereo not drawn),,,,> 50,< 50,4.51,30.8,,,,,,,> 50,> 50,< 50,6.07,1.19
Cc1ccc(S(=O)(=O)OC(CN(Cc2ccccc2)C(=O)OC(C)(C)C)c2ccccc2)cc1 (stereo not drawn),< 50,4.93,11.7,> 50,< 50,5.39,4.07,< 50,4.49,32.7,< 50,5.12,7.5,> 50,> 50,,,
CC(C)(C)OC(=O)N(Cc1ccc(F)cc1)CC(OS(=O)(=O)c1cccc(Cl)c1Cl)c1ccccc1 (stereo not drawn),< 50,6.28,,> 50,,,,< 50,5.13,7.46,,,,> 50,> 50,< 50,4.83,14.7

# More lines, now with the values ahead:
MIC [1] [µM],pIC50 [1],IC50 [1] [µM],MIC (Candida parapsilosis) [µM],MIC (Candida albicans) [µM],pIC50 (Candida albicans),IC50 (Candida albicans) [µM],MIC (Sporothrix schenckii) [µM],pIC50 (Sporothrix schenckii),IC50 (Sporothrix schenckii) [µM],MIC (Escherichia coli) [µM],pIC50 (Escherichia coli),IC50 (Escherichia coli) [µM],MIC (Aspergillus fumigatus) [µM],MIC (Cryptococcus neoformans) [µM],MIC (Staphylococcus aureus) [µM],pIC50 (Staphylococcus aureus),IC50 (Staphylococcus aureus) [µM],Structure (SMILES)
< 50,5.02,9.48,> 50,< 50,5.07,8.59,< 50,4.49,32.7,< 50,4.73,18.5,> 50,> 50,,,,CC(C)(C)OC(=O)N(Cc1ccccc1)CC(OS(=O)(=O)c1ccc(C#N)cc1)c1ccccc1 (stereo not drawn)
< 50,6.48,,> 50,,,,< 50,4.57,26.7,,,,> 50,> 50,,,,CC(C)(C)OC(=O)N(Cc1ccccc1)CC(OS(=O)(=O)c1cccc(Cl)c1Cl)c1ccccc1 (stereo not drawn)
,,,> 50,,,,< 50,4.61,24.4,,,,> 50,> 50,,,,CC(C)(C)OC(=O)N(Cc1ccc(Cl)c(Cl)c1)CC(OS(=O)(=O)c1cccc([N+](=O)[O-])c1)c1ccccc1 (stereo not drawn)
,,,> 50,,,,,,,,,,> 50,> 50,< 50,4.65,22.6,CC(C)(C)OC(=O)N(Cc1ccc(F)cc1)CC(OS(=O)(=O)c1ccc(F)cc1)c1ccccc1 (stereo not drawn)
,,,> 50,,,,,,,,,,> 50,> 50,< 50,4.40,39.8,CC(C)(C)OC(=O)N(Cc1ccc(F)cc1)CC(OS(=O)(=O)c1cccc([N+](=O)[O-])c1)c1ccccc1 (stereo not drawn)
